In patent US11560373B2, “Compounds and their use as PDE4 activators” (Mironid Limited, priority 2018, dated 2023):

How the values were obtained:
PDE4B1 = target: T1, PDE4B1 (Homo sapiens, UniProt Q07343); test: PDE assay, [3H]cAMP hydrolysis by HEK-PDE4B1 cell lysate cytosol fraction; format: biochemical; settings: mean % increase in counts over basal activity
T1 construct: stably expressed the full-length human PDE4D5, PDE4B1 and PDE4A4 long isoforms; made in house

PDE4D5 = target: T2, PDE4D5 (Homo sapiens, UniProt Q08499); test: PDE assay, [3H]cAMP hydrolysis by HEK-PDE4D5 cell lysate cytosol fraction; format: biochemical; settings: 30 μM; mean % increase in counts over basal activity
T2 construct: stably expressed the full-length human PDE4D5, PDE4B1 and PDE4A4 long isoforms; made in house
Experimental: (§1) HEK 293 cells were transfected with pDEST™ PDE4 expression vectors using Lipofectamine LTX/Plus reagent (Invitrogen) as outlined by the manufacturer and clonal isolates expanded to obtain cell lines that stably expressed the full-length human PDE4D5, PDE4B1 and PDE4A4 long isoforms and the full length human PDE4B2 short isoform. These were called the HEK-PDE4D5, HEK-PDE4B1, HEK-PDE4A4 and HEK-PDE4B2 cell lines, respectively.
(§2) HEK-PDE4D5 cells were seeded out in 100 mm plates and incubated at 37° C. in an atmosphere of 5% CO2, 95% air. Cell lysates were prepared using KHEM buffer [50 mM KCl, 10 mM EGTA, 50 mM HEPES (pH 7.2), 1.92 mM MgCl2].
(§3) To prepare the cell lysates, the 100 mm plates containing the cells were placed on ice and washed with ice-cold PBS (phosphate buffered saline, pH 7.4). KHEM buffer (500 μl) was added to the cells. Cells were then scraped off the plate and triturated using a needle (BD Microlance™ 0.8, 40 mm). The lysed cells were then centrifuged at 2000 rpm for 10 minutes to remove cell debris and the supernatant (cell lysate containing recombinant PDE4D5) was transferred to a fresh tube and kept on ice.
(§4) The cell lysate containing recombinant PDE4D5 was transferred into a centrifuge tube and placed into an ultracentrifuge (BECKMAN COULTER) and spun at high speed (100,000 g) for 30 minutes at 4° C. The cytosol fraction was then collected and its protein amount determined using a BCA protein assay.
(§5) PDE assays were performed in thin walled V-bottomed 96-well plates. The assays were performed at a final concentration of 10 mM Tris/5 mM MgCl2 plus PDE4D5 cell lysate cytosol fraction, containing over-expressed PDE4D5, with and without test compound. The lysate/compound mix were incubated together for 15 min at room temperature on an orbital shaker prior to addition of [^3H] cAMP (final concentration 1 μM [^3H] cAMP; Perkin Elmer) to a final volume of 50 μl per reaction. The reactions were then incubated for 10 minutes at 30° C., terminated by heating for 2 min at 95° C. and allowed to cool. Snake venom (12.5 μl of 1 mg/ml; Crotalus atrox, Sigma) was then added and the plates were agitated and incubated for a further 15 minutes at 30° C. Dowex ion exchange resin (Sigma, chloride form, 200-400 mesh; 200 μl; prepared as a 1:1 Dowex: water stock, thoroughly re-suspended and diluted 2:1 with ethanol) was then added to each well and the plates incubated for 15 min at room temperature on an orbital shaker ensuring sufficient agitation for resin suspension (550 RPM). The reaction mixture was then transferred to a 96 well filter plate (Millipore; […] pore size) and filtered into a receiving 96-well plate to remove the dowex suspension. 30 μL of the filtered solution was then transferred to the wells of an Opti-plate (Perkin Elmer) 96 well assay plate and 120 μl of Microscint 40 scintillation fluid was added. The plate was then placed on an orbital shaker for 10 min at high speed (900 RPM) to mix the sample with scintillation fluid prior to quantitation using a plate based scintillation counter (Top-Count).
(§6) The % increase in counts in the presence of test compound at a particular concentration indicates the % increase in enzyme activity at that concentration.

PDE4B2 = target: T3, PDE4B2 (Homo sapiens, UniProt Q07343); test: PDE assay, [3H]cAMP hydrolysis by HEK-PDE4B2 cell lysate cytosol fraction (short form); format: biochemical; settings: mean % increase in counts over basal activity
T3 construct: the full length human PDE4B2 short isoform; made in house
Experimental: as §1, §2, §3, §4, §5, §6

MDCK cells [1] = test: Reduction of intracellular cAMP levels in forskolin stimulated MDCK cells; format: cell-based, canine; settings: compound 40 min prior to forskolin (1 μM) for 20 min
Experimental: MDCK cells were seeded at 100,000 cells per well, and left to adhere overnight. The cells were then treated with the test compound for 40 minutes, prior to stimulation with forskolin (1 μM, Sigma) for 20 minutes. Media was aspirated, and hydrochloric acid (0.1 M) was added to lyse the cells. The cAMP assay (Enzo Life Sciences) was performed according to the manufacturer's instructions.

MDCK cells [2] = test: Inhibition of in vitro cyst formation in 3D culture of MDCK cells; format: cell-based, canine; settings: 300 nM prostaglandin E2, 10 days; % Cyst Volume compared to vehicle
From the text: In this study, the well-established three-dimensional (3D) MDCK cell model is used to investigate the effects of PDE4 long form activators on the formation of kidney cysts and evaluate their potential in the treatment of polycystic kidney diseases. 3D cysts are generated based on the method of Mao et al. (Mao, Z., Streets, A. J., Ong, A. C. M. Am. J. Physiol. Renal Physiol. 300(6): F1375-F1384, 2011), with some modifications.
Type 1 collagen (Invitrogen) is first prepared on ice by neutralising an acidic stock solution (3 mg/ml) with 17 mM NaOH and diluting it to 1 mg/ml with DMEM, supplemented with 2% (v/v) FBS, 2 mM L-glutamine, 1,000 U penicillin and 1,000 μg streptomycin (DMEM-2% FBS). […]
Phase-contrast images are obtained on the Motic microscope (×4 magnification). 8 images are taken per condition and the cyst diameter measured (up to 150 cyst measurements per well). Cyst spheroid volume is calculated using the formula 4/3πr^3 where r is the radius of the spheroid. A mean cyst volume is then calculated per well. The mean cyst volume and standard deviation between the duplicate wells is then calculated and expressed as a % Cyst Volume compared to the vehicle only (DMSO+300 nM PGE2) control wells. […]

PDE4A4 = target: T4, PDE4A4 (Homo sapiens, UniProt P27815); test: PDE assay, [3H]cAMP hydrolysis by HEK-PDE4A4 cell lysate cytosol fraction; format: biochemical; settings: mean % increase in counts over basal activity
T4 construct: stably expressed the full-length human PDE4D5, PDE4B1 and PDE4A4 long isoforms; made in house
T4 sequence (P27815 whole entry, canonical isoform): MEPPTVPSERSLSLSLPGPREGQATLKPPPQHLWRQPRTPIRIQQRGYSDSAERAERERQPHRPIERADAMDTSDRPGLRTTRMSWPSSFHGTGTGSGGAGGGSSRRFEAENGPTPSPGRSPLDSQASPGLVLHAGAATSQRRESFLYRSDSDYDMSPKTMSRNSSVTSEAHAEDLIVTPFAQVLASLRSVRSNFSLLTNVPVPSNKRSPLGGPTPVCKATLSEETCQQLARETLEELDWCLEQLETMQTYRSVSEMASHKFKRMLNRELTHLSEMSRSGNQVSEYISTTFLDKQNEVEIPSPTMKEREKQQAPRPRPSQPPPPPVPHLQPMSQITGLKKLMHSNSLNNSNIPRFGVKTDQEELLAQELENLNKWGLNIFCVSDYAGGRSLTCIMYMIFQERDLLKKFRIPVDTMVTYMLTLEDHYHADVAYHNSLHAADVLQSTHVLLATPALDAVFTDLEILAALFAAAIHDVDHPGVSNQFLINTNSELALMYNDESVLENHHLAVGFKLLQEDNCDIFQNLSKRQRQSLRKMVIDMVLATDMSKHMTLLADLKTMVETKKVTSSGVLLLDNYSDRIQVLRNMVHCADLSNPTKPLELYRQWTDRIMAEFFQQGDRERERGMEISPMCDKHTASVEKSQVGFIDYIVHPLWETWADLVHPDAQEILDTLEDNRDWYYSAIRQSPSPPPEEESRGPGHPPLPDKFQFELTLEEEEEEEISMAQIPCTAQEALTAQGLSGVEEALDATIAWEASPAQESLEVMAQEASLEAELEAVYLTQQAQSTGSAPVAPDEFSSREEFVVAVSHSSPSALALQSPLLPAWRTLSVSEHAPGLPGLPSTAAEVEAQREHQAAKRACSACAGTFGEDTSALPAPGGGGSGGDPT

T2 sequence (Q08499 1-745 isoform Q08499-6): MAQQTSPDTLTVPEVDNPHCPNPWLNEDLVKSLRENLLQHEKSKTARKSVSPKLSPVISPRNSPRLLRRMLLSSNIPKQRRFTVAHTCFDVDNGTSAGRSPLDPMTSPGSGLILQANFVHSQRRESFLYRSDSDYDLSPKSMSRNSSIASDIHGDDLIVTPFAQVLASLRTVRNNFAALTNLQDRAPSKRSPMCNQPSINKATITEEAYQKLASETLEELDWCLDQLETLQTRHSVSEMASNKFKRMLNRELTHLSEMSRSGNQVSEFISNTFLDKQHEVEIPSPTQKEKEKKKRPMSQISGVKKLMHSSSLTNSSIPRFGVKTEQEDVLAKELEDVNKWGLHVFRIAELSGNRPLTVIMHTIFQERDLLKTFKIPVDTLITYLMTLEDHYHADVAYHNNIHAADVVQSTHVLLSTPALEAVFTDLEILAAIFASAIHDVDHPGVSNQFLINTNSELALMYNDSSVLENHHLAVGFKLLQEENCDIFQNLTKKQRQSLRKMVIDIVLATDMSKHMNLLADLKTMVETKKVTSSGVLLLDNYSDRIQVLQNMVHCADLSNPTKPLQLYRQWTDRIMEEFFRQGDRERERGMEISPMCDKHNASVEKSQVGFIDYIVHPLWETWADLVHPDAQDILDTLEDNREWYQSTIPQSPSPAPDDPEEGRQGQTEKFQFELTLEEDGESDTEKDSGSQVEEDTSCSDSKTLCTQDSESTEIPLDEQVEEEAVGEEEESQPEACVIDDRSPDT
T3 sequence (Q07343 1-564 isoform Q07343-2): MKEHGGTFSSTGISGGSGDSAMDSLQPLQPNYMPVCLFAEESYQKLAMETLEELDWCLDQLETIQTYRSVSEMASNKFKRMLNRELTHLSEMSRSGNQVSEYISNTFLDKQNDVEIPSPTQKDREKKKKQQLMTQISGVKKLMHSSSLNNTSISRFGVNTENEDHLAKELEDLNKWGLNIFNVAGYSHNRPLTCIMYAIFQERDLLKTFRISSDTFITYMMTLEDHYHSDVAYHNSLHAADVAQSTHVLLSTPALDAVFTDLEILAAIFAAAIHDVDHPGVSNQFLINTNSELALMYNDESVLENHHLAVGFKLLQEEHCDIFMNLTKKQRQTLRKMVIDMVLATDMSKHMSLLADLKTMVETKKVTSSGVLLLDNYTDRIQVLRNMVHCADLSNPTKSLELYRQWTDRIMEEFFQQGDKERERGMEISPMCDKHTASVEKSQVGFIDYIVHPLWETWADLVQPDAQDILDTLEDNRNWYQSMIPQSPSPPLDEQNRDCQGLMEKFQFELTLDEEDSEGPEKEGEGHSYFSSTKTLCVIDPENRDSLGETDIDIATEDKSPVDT
T1 sequence (Q07343 whole entry, canonical isoform): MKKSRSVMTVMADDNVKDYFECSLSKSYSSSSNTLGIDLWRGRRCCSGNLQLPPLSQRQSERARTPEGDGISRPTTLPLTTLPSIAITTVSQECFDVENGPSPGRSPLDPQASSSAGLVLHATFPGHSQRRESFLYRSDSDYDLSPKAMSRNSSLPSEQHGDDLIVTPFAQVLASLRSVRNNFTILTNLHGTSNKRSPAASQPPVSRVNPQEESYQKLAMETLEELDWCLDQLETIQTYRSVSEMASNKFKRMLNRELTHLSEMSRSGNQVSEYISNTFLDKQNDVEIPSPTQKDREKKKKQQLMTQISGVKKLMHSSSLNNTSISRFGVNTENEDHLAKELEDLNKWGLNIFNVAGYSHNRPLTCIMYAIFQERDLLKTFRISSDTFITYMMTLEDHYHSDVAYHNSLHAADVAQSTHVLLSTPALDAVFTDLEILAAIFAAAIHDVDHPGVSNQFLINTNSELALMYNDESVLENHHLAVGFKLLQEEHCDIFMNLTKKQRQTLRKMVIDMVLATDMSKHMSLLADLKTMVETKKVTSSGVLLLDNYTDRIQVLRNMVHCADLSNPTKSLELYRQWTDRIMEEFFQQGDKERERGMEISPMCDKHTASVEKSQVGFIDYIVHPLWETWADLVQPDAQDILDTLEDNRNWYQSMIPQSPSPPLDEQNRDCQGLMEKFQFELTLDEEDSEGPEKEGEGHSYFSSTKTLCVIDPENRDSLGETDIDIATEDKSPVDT

SMILES	% increase in PDE4B1 activity at 30 μM (PDE4B1) [%]	activation at 30 µM (PDE4D5) [%]	% increase in PDE4B2 activity at 30 μM (PDE4B2) [%]	intracellular cAMP levels in MDCK cells (FIG. 2) (MDCK cells [1])	cyst formation in 3D culture of MDCK cells (FIG. 3) (MDCK cells [2])	% increase in PDE4A4 activity at 30 μM (PDE4A4) [%]
CCn1nc(-c2ccc(Cl)c(F)c2)nc1CC(=O)NCc1cccc(OC)c1 [Example 2, 2-[3-(4-Chloro-3-fluorophenyl)-1-ethyl-1H-1,2,4-triazol-5-yl]-N-(3-methoxybenzyl) acetamide]	99.4					
CCn1nc(-c2ccc(Cl)c(F)c2)nc1CC(=O)NCc1cc(C)nc(C)c1 [Example 3, 2-[3-(4-Chloro-3-fluorophenyl)-1-ethyl-1H-1,2,4-triazol-5-yl]-N-((2,6-dimethylpyridin-4-yl)methyl)acetamide]		73.2	−10.9	reduction in intracellular cAMP levels	inhibition of cyst formation	
COCCn1nc(-c2ccc(Cl)c(F)c2)nc1CC(=O)NCc1cc(Cl)cc(Cl)c1 [Example 22, 2-[3-(4-Chloro-3-fluorophenyl)-1-(2-methoxyethyl)-1H-1,2,4-triazol-5-yl]-N-[(3,5-dichlorophenyl)methyl]acetamide]		99.9	−2.9			92.5
CCn1nc(-c2ccc(Cl)c(OC(C)C)c2)nc1CC(=O)NCc1cc(Cl)cc(Cl)c1 [Example 34, 2-[3-(4-Chloro-3-isopropyloxyphenyl)-1-ethyl-1H-1,2,4-triazol-5-yl]-N-[(3,5-dichlorophenyl)methyl]acetamide]		108	−4.4			75.5
